Measured values: PMC10165273, “Itch receptor MRGPRX4 interacts with the receptor activity–modifying proteins” (The Journal of Biological Chemistry, 2023)
pEC50: −log10 of the molar value. Several values for one entry are separate records, joined by “and”; a condition that tells them apart may be missing. Identical values can stand only once. Like-named read-outs stand apart in the source and are kept apart here.

Columns and labels:
[1] = target: T1, MRGPRX4 + RAMP3 (Homo sapiens, UniProt Q96LA9); test: BRET2 β-arrestin2 recruitment, MRGPRX4 with RAMP3; assay type: cell-based
T1 construct: expressed in transfected cells; host or cells: HEK293T
T1 sequence (Q96LA9 whole entry): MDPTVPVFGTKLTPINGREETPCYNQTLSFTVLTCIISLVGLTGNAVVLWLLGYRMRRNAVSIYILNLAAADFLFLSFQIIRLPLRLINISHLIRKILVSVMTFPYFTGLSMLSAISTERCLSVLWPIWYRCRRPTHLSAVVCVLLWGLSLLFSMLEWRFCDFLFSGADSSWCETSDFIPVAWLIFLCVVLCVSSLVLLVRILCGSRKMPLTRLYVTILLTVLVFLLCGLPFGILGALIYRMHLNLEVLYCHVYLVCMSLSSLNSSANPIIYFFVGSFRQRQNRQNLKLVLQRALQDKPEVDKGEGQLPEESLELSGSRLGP
Description: (§1) The method for homogenous transfection of β-Arrestin and BRET^2 assay of β-Arrestin recruitment has been described previously ([51]). […] BRET^2 measurements were taken on the BioTek Synergy NEO2 microplate reader.
(§2) The BRET ratio for each sample was determined by calculating the ratio of the light intensity emitted by the GFP10 (515 nm) (acceptor) over the light intensity emitted by the RLuc3 (395 nm) (donor). Net BRET^2 was determined by subtracting the basal BRET^2 (β-arrestin-RLuc3 only) signal from the BRET^2 signals. All BRET values were normalized to the MRGPRX4-only condition.

[2] = target: T2, MRGPRX4 (Homo sapiens, UniProt Q96LA9); test: BRET2 β-arrestin2 recruitment to MRGPRX4; assay type: cell-based; conditions: for net BRET2 ratio, βArr2 recruitment: Fig 5b, 100µM ligand, replicate values; for net BRET2 ratio, βArr2 recruitment / BRET2 ratio: listed as Ng; for BRET2 ratio: Fig 5c, MRGPRX4, 100μM ligand
T2 construct: expressed in transfected cells; host or cells: HEK293T
T2 sequence (Q96LA9 whole entry): as above
Text: as §1
For MRGPRX4 DNA titration assays, HEK293T cells were cotransfected with either β-Arrestin1 or β-Arrestin2 with increasing amounts of MRGPRX4 (0.5, 1, or 2 pg/cell).
(§3) To measure the time-course of β-Arrestin2 recruitment to MRGPRX4 and CALCRL, the transfection and general procedure described above was followed, with the modification that Prolume Purple was added first, followed by addition of the appropriate agonists ([51]).
as §2

[3] = tested on: mock-transfected cells; test: BRET2 β-arrestin recruitment time course, mock-transfected cells; assay type: cell-based, human; conditions: Fig 5c, 100μM ligand, listed as Ng
[4] = tested on: mock (βArr2); test: BRET2 β-arrestin2 recruitment, mock-transfected cells; assay type: cell-based, human; conditions: 100µM Ng
[5] = tested on: MRGPRX4; parameters: method as in PMID 25895059; conditions: ref [10]; read-out: phosphatidylinositol hydrolysis EC50; cited from earlier work
[6] = target: T3, MRGPRX4 + RAMP1 (Homo sapiens, UniProt Q96LA9); test: BRET2 β-arrestin2 recruitment, MRGPRX4 with RAMP1; assay type: cell-based; conditions: RAMP1 coexpression vs MRGPRX4 alone (Fig. 5F)
T3 construct: expressed in transfected cells; host or cells: HEK293T
T3 sequence (Q96LA9 whole entry): as above
Description: as §1, §2

[7] = tested on: MRGPRX4; parameters: method as in Cao et al. [23]; conditions: ref Cao et al. [23]; read-out: Ca2+ flux EC50; cited from earlier work
[8] = target: T4, MRGPRX4 + RAMP2 (Homo sapiens, UniProt Q96LA9); test: BRET2 β-arrestin2 recruitment, MRGPRX4 with RAMP2; assay type: cell-based; conditions: for BRET2 ratio, time course (Figure 5e): MRGPRX4 + RAMP2 100μM Ng, listed as Ng
T4 construct: expressed in transfected cells; host or cells: HEK293T
T4 sequence (Q96LA9 whole entry): as above
Description: as §1, §3, §2

[9] = MRGPRX4-GFP10 BRET2 time-course, 100 µM (Fig. 5)

CC(C)[C@H]1CC[C@H](C(=O)N[C@H](Cc2ccccc2)C(=O)O)CC1 [Nateglinide]
normalized β-arrestin2 recruitment BRET2 signal (Figure 5f) ([1]; MRGPRX4 + RAMP3, 100μM Ng, listed as Ng): 0.6122 and 0.604 and 0.6466 and 0.7957
attenuation of β-arrestin2 recruitment upon nateglinide treatment ([1]; RAMP3 coexpression vs MRGPRX4 alone (Fig. 5F)): 34%
β-arrestin2 recruitment to MRGPRX4 ([2]; 100 μM agonist (Fig. 5B, C)): recruited β-arrestin2 more strongly than β-arrestin1
net BRET2 ratio, βArr2 recruitment ([2]; MRGPRX4 20ng, 0.5 pg DNA/cell): 0.01059 and 0.011 and 0.01083 and 0.009137 and 0.01004 and 0.009779 and 0.007885 and 0.007959 and 0.007875 and 0.009405 and 0.008616 and 0.00928 and 0.007811 and 0.00797 and 0.009994 and 0.008653 and 0.00706 and 0.007614 and 0.007209 and 0.007504 and 0.007132 and 0.006566 and 0.006348 and 0.007157 and 0.004522 and 0.007759 and 0.005207
net BRET2 ratio, βArr2 recruitment ([2]; MRGPRX4 40ng, 1 pg DNA/cell): 0.01411 and 0.01341 and 0.01314 and 0.01164 and 0.01153 and 0.01104 and 0.009585 and 0.009093 and 0.008671 and 0.0118 and 0.009621 and 0.01107 and 0.01117 and 0.01052 and 0.009545 and 0.01099 and 0.00914 and 0.009334 and 0.008409 and 0.01062 and 0.01019 and 0.008186 and 0.008003 and 0.007557 and 0.007525 and 0.005338 and 0.009291
net BRET2 ratio, βArr2 recruitment ([2]; MRGPRX4 80ng, 2 pg DNA/cell): 0.01501 and 0.01563 and 0.01506 and 0.0134 and 0.0136 and 0.01318 and 0.01149 and 0.0115 and 0.01095 (2×) and 0.01387 and 0.01159 and 0.01257 and 0.01157 and 0.01276 and 0.01058 and 0.009957 and 0.009364 and 0.01169
net BRET2 ratio, βArr2 recruitment ([2]; βArr2 only, 0 pg MRGPRX4 DNA/cell): 0.0002584 and -0.0001954 and -6.2982e-5 and -0.0001775 and 0.0006514 and -0.0004739 and -9.3811e-5 and 0.0004305 and -0.0003367 and -6.4621e-5 and -0.0005147 and 0.0005793 and -0.0001286 and 0.0001629 and -3.4338e-5 and 0.0006863 and -0.0005797 and -0.0001066 and -6.7124e-5 and 1.05e-5 and 5.6622e-5 and 0.0001307 and -0.0006572 and 0.0005265 and 0.0006391 and 0.0003062 and -0.0009453
BRET2 ratio ([2]; 60 s): 0.01411 and 0.01234 and 0.0129
BRET2 ratio ([2]; 120 s): 0.01624 and 0.01368 and 0.01342
BRET2 ratio ([2]; 180 s): 0.01716 and 0.01419 and 0.01539
BRET2 ratio ([2]; 240 s): 0.01732 and 0.01509 and 0.01494
BRET2 ratio ([2]; 300 s): 0.01643 and 0.01468 and 0.01593
BRET2 ratio ([2]; 360 s): 0.01701 and 0.01469 and 0.01434
BRET2 ratio ([2]; 420 s): 0.01667 and 0.01531 and 0.01417
BRET2 ratio ([2]; 480 s): 0.01658 and 0.0139 and 0.01409
BRET2 ratio ([2]; 540 s): 0.01614 and 0.01397 and 0.01412
BRET2 ratio ([2]; 600 s): 0.01601 and 0.01404 and 0.013
BRET2 ratio ([2]; 660 s): 0.0171 and 0.01418 and 0.0126
BRET2 ratio ([2]; 720 s): 0.01525 and 0.01442 and 0.01263
BRET2 ratio ([2]; 780 s): 0.01511 and 0.01318 and 0.01349
BRET2 ratio ([2]; 840 s): 0.01493 and 0.01394 and 0.01155
BRET2 ratio ([2]; 900 s): 0.01482 and 0.01445 and 0.01282
BRET2 ratio ([2]; 960 s): 0.01446 and 0.01322 and 0.01117
BRET2 ratio ([2]; 1020 s): 0.01461 and 0.01265 and 0.01275
BRET2 ratio ([2]; 1080 s): 0.01404 and 0.01402 and 0.01514
BRET2 ratio ([2]; 1140 s): 0.01394 and 0.01316 and 0.01206
BRET2 ratio ([2]; 1200 s): 0.01452 and 0.0141 and 0.01263
BRET2 ratio ([2]; 1260 s): 0.01409 and 0.01389 and 0.01057
BRET2 ratio ([2]; 1320 s): 0.01336 and 0.01334 and 0.0149
BRET2 ratio ([2]; 1380 s): 0.01171 and 0.01208 and 0.01329
normalized β-arrestin2 recruitment BRET2 signal (Figure 5f) ([2]; MRGPRX4, 100μM Ng): 1
Kfast [2, 9]: 0.008519
Kslow [2, 9]: 0.002534
Rate constant ratio [2, 9]: 3.361
Tau (fast) [2, 9]: 117.4
Tau (slow) [2, 9]: 394.6
two-phase decay Plateau [2, 9]: 0.004639
two-phase decay x0 [2, 9]: 56.70
two-phase decay y0 [2, 9]: 0.01291
time of peak β-arrestin2 recruitment to MRGPRX4 ([2]; time course (Fig. 5C)): 3 min
BRET2 ratio ([3]; 60 s): 0.008415 and 0.007646 and 0.00794
BRET2 ratio ([3]; 120 s): 0.007842 and 0.007685 and 0.007289
BRET2 ratio ([3]; 180 s): 0.007259 and 0.007981 and 0.007565
BRET2 ratio ([3]; 240 s): 0.007155 and 0.006788 and 0.008148
BRET2 ratio ([3]; 300 s): 0.007567 and 0.007447 and 0.007514
BRET2 ratio ([3]; 360 s): 0.008471 and 0.007058 and 0.007429
BRET2 ratio ([3]; 420 s): 0.007097 and 0.007188 and 0.007508
BRET2 ratio ([3]; 480 s): 0.006826 and 0.007196 and 0.007205
BRET2 ratio ([3]; 540 s): 0.008083 and 0.00749 and 0.00867
BRET2 ratio ([3]; 600 s): 0.007686 and 0.006192 and 0.007271
BRET2 ratio ([3]; 660 s): 0.006698 and 0.007765 and 0.007192
BRET2 ratio ([3]; 720 s): 0.00801 and 0.006623 and 0.005548
BRET2 ratio ([3]; 780 s): 0.009777 and 0.007416 and 0.006284
BRET2 ratio ([3]; 840 s): 0.007062 and 0.008946 and 0.00672
BRET2 ratio ([3]; 900 s): 0.007894 and 0.008249 and 0.007741
BRET2 ratio ([3]; 960 s): 0.008424 and 0.006304 and 0.008892
BRET2 ratio ([3]; 1020 s): 0.008684 and 0.007837 and 0.007668
BRET2 ratio ([3]; 1080 s): 0.008011 and 0.008281 and 0.007344
BRET2 ratio ([3]; 1140 s): 0.009425 and 0.00762 and 0.007536
BRET2 ratio ([3]; 1200 s): 0.006477 and 0.008078 and 0.009426
BRET2 ratio ([3]; 1260 s): 0.008155 and 0.006248 and 0.008937
BRET2 ratio ([3]; 1320 s): 0.008765 and 0.01027 and 0.007016
BRET2 ratio ([3]; 1380 s): 0.009766 and 0.009472 and 0.01001
β-arrestin recruitment BRET2 signal (Figure 5d) [4]: -0.01563
pEC50 [5]: 5.68
decrease in β-arrestin2 recruitment upon nateglinide treatment [6]: ~10%
pEC50 [7]: 5.33
BRET2 ratio, time course (Figure 5e) ([8]; 60 seconds): 0.009668 and 0.00973 and 0.009697
BRET2 ratio, time course (Figure 5e) ([8]; 120 seconds): 0.01023 and 0.01 and 0.01054
BRET2 ratio, time course (Figure 5e) ([8]; 180 seconds): 0.01074 and 0.009771 and 0.01057
BRET2 ratio, time course (Figure 5e) ([8]; 240 seconds): 0.01008 and 0.0101 and 0.01015
BRET2 ratio, time course (Figure 5e) ([8]; 300 seconds): 0.009689 and 0.009979 and 0.01017
BRET2 ratio, time course (Figure 5e) ([8]; 360 seconds): 0.009793 and 0.009837 and 0.01091
BRET2 ratio, time course (Figure 5e) ([8]; 420 seconds): 0.009697 and 0.01031 and 0.01076
BRET2 ratio, time course (Figure 5e) ([8]; 480 seconds): 0.00993 and 0.009604 and 0.009499
BRET2 ratio, time course (Figure 5e) ([8]; 540 seconds): 0.00961 and 0.009808 and 0.01044
BRET2 ratio, time course (Figure 5e) ([8]; 600 seconds): 0.01026 and 0.01047 and 0.00952
BRET2 ratio, time course (Figure 5e) ([8]; 660 seconds): 0.009244
decrease in β-arrestin2 recruitment upon nateglinide treatment ([8]; RAMP2 coexpression vs MRGPRX4 alone (Fig. 5F)): 73%
